Laboratory results reported in patent US5847092A (Zambon Group S.p.A., priority 1994, dated 1998).
Converted amounts (≈) assume the structure as drawn.

What was measured:
Test in all cases: In vitro antibacterial activity, MIC, broth microdilution
Assay type in all cases: cell-based
[1] = tested on: Streptococcus pyogenes C 203; settings: S. pyogenes C 203, MHB + 5% horse serum, 37° C., 18 hours; for MIC: Streptococcus pyogenes, C203, read-out: minimum inhibiting concentration MIC
Protocol: (§1) a) In vitro antibacterial activity The determination of the minimum inhibiting concentrations (MIC), with respect to Gram-positive and Gram-negative bacteria was carried out through the micromethod of gradual broth dilution in double series [National Committee for Clinical Laboratory Standards, 1990; Methods for dilution antimicrobial susceptibility tests for bacteria that grow aerobically; Approved standards […], Villanova, Pa.], by using Mueller Hinton Broth (MHB) as a culture medium. In the case of […] bacteria, horse serum at 5% (Streptococcus pneumoniae and Streptococcus pyogenes) was added to the medium. Roxithromycin and Clarithromycin [The Merck Index, XI Ed., No. 8253 and 2340, respectively] were used as reference macrolides. MIC, expressed as (μg/ml), were determined after incubation of the microplates at 37° C. for 18 hours, evaluating the lowest antibiotic concentration enabling the inhibition of bacterial development.

[2] = tested on: Streptococcus pneumoniae BS 4; settings: S. pneumoniae BS 4, MHB + 5% horse serum, 37° C., 18 hours; for MIC: Streptococcus pneumoniae, BS4, read-out: minimum inhibiting concentration MIC
Protocol: as §1

[3] = tested on: Staphylococcus aureus PV 14; settings: S. aureus PV 14, MHB, 37° C., 18 hours; for MIC: Staphylococcus aureus, PV14, read-out: minimum inhibiting concentration MIC
Protocol: as §1

[4] = tested on: Streptococcus pneumoniae BS 3; settings: S. pneumoniae BS 3, MHB + 5% horse serum, 37° C., 18 hours; for MIC: Streptococcus pneumoniae, BS3, read-out: minimum inhibiting concentration MIC
Protocol: as §1

[5] = tested on: Enterococcus faecalis ATCC 29212; settings: E. faecalis ATCC 29212, MHB, 37° C., 18 hours; for MIC: Enterococcus faecalis, ATCC29212, read-out: minimum inhibiting concentration MIC
Protocol: as §1

[6] = tested on: Klebsiella pneumoniae ZC 2; settings: K. pneumoniae ZC 2, MHB, 37° C., 18 hours; for MIC: Klebsiella pneumoniae, ZC2, read-out: minimum inhibiting concentration MIC
Protocol: as §1

[7] = tested on: Streptococcus pyogenes A 26; settings: S. pyogenes A 26, MHB + 5% horse serum, 37° C., 18 hours; for MIC: Streptococcus pyogenes, A26, read-out: minimum inhibiting concentration MIC
Protocol: as §1

[8] = tested on: Escherichia coli ATCC 25922; settings: E. coli ATCC 25922, MHB, 37° C., 18 hours; for MIC: Escherichia coli, ATCC25922, read-out: minimum inhibiting concentration MIC
Protocol: as §1

Compound	MIC [1] [µg/mL]	MIC [2] [µg/mL]	MIC [3] [µg/mL]	MIC [4] [µg/mL]	MIC [5] [µg/mL]	MIC [6] [µg/mL]	MIC [7] [µg/mL]	MIC [8] [µg/mL]	minimum inhibiting concentration MIC [1] [µg/mL]	minimum inhibiting concentration MIC [2] [µg/mL]	minimum inhibiting concentration MIC [3] [µg/mL]	minimum inhibiting concentration MIC [4] [µg/mL]	minimum inhibiting concentration MIC [5] [µg/mL]	minimum inhibiting concentration MIC [6] [µg/mL]	minimum inhibiting concentration MIC [7] [µg/mL]	minimum inhibiting concentration MIC [8] [µg/mL]
CC[C@H]1OC(=O)[C@H](C)[C@@H](O[C@H]2C[C@@](C)(OC)[C@@H](O)[C@H](C)O2)[C@H](C)[C@@H](O[C@@H]2O[C@H](C)C[C@H](N(C)C)[C@H]2O)[C@](C)(O)C[C@@H](C)/C(=N\OCCCCCCNCCCCCNCc2ccccc2)[C@H](C)[C@@H](O)[C@]1(C)O [Compound 8, Erythromycin A (E)-9-[0-[6-[5-(phenylmethylamino)pentylamino]hexyl]oxime]]	0.0078	0.5	0.5 (≈ 0.489 µM)	0.25	8 (≈ 7.82 µM)	16 (≈ 15.6 µM)	0.0312	4 (≈ 3.91 µM)	–	–	–	–	–	–	–	–
Erythromycin A (E)-9-[0-[2-[N-ethyl-6-[N'-ethyl-N'-(2-phenylethyl)amino]hexylamino]hexyl])oxime] [Compound 2]	–	–	–	–	–	–	–	–	0.0312	0.0312	1	0.0156	8	64	0.0156	16
CC[C@H]1OC(=O)[C@H](C)[C@@H](O[C@H]2C[C@@](C)(OC)[C@@H](O)[C@H](C)O2)[C@H](C)[C@@H](O[C@@H]2O[C@H](C)C[C@H](N(C)C)[C@H]2O)[C@](C)(O)C[C@@H](C)/C(=N\OCCCCCNCCCCCCNCc2ccccc2)[C@H](C)[C@@H](O)[C@]1(C)O [Compound 11, Erythromycin A (E)-9-[0-[5-[6-(phenylmethylamino)hexylamino]pentyl]oxime]]	0.0312	0.5	0.5 (≈ 0.489 µM)	0.25	16 (≈ 15.6 µM)	16 (≈ 15.6 µM)	0.0625	8 (≈ 7.82 µM)	–	–	–	–	–	–	–	–
CC[C@H]1OC(=O)[C@H](C)[C@@H](O[C@H]2C[C@@](C)(OC)[C@@H](O)[C@H](C)O2)[C@H](C)[C@@H](O[C@@H]2O[C@H](C)C[C@H](N(C)C)[C@H]2O)[C@](C)(O)C[C@@H](C)/C(=N\OCCCCCCNCCCNCc2ccccc2)[C@H](C)[C@@H](O)[C@]1(C)O [Compound 7, Erythromycin A (E)-9-[0-[6-[3-(phenylmethylamino)propylamino]hexyl]oxime]]	0.0156	0.0625	0.5 (≈ 0.502 µM)	0.0625	4 (≈ 4.02 µM)	16 (≈ 16.1 µM)	0.0312	4 (≈ 4.02 µM)	–	–	–	–	–	–	–	–
CC[C@H]1OC(=O)[C@H](C)[C@@H](O[C@H]2C[C@@](C)(OC)[C@@H](O)[C@H](C)O2)[C@H](C)[C@@H](O[C@@H]2O[C@H](C)C[C@H](N(C)C)[C@H]2O)[C@](C)(O)C[C@@H](C)/C(=N\OCCNCCCCCCNCc2ccco2)[C@H](C)[C@@H](O)[C@]1(C)O [Compound 31]	0.0039	0.0078	0.5 (≈ 0.515 µM)	0.0078	4 (≈ 4.12 µM)	16 (≈ 16.5 µM)	0.0078	4 (≈ 4.12 µM)	–	–	–	–	–	–	–	–
CC[C@H]1OC(=O)[C@H](C)[C@@H](O[C@H]2C[C@@](C)(OC)[C@@H](O)[C@H](C)O2)[C@H](C)[C@@H](O[C@@H]2O[C@H](C)C[C@H](N(C)C)[C@H]2O)[C@](C)(O)C[C@@H](C)/C(=N\OCCNCCCCCCNCc2cc(Cl)cc(Cl)c2O)[C@H](C)[C@@H](O)[C@]1(C)O [Compound 32, Erythromycin A (E)-9-[0-[2-[6-[(3,5-dichloro-2-hydroxyphenyl)methylamino]hexylamino]ethyl]oxime]]	0.0156	0.0312	0.5 (≈ 0.469 µM)	0.0625	2 (≈ 1.88 µM)	16 (≈ 15 µM)	0.0625	4 (≈ 3.75 µM)	–	–	–	–	–	–	–	–
CC[C@H]1OC(=O)[C@H](C)[C@@H](O[C@H]2C[C@@](C)(OC)[C@@H](O)[C@H](C)O2)[C@H](C)[C@@H](O[C@@H]2O[C@H](C)C[C@H](N(C)C)[C@H]2O)[C@](C)(O)C[C@@H](C)/C(=N\OCCNCCCCCCNCc2ccc(O)cc2)[C@H](C)[C@@H](O)[C@]1(C)O [Compound 28, Erythromycin A (E)-9-[0-[2-[6-[(4-hydroxyphenyl)methylamino]hexylamino]ethyl]oxime]]	0.125	0.25	0.125 (≈ 0.125 µM)	0.25	16 (≈ 16 µM)	32 (≈ 32.1 µM)	0.25	16 (≈ 16 µM)	–	–	–	–	–	–	–	–
CC[C@H]1OC(=O)[C@H](C)[C@@H](O[C@H]2C[C@@](C)(OC)[C@@H](O)[C@H](C)O2)[C@H](C)[C@@H](O[C@@H]2O[C@H](C)C[C@H](N(C)C)[C@H]2O)[C@](C)(O)C[C@@H](C)/C(=N\OCCNCCCCCCNCc2ccccc2O)[C@H](C)[C@@H](O)[C@]1(C)O [Compound 24, Erythromycin A (E)-9-[0-[2-[6-[(2-hydroxyphenyl)methylamino]hexylamino]ethyl]oxime]]	0.0039	0.0156	0.25 (≈ 0.251 µM)	0.0078	4 (≈ 4.01 µM)	8 (≈ 8.02 µM)	0.0156	4 (≈ 4.01 µM)	–	–	–	–	–	–	–	–
CC[C@H]1OC(=O)[C@H](C)[C@@H](O[C@H]2C[C@@](C)(OC)[C@@H](O)[C@H](C)O2)[C@H](C)[C@@H](O[C@@H]2O[C@H](C)C[C@H](N(C)C)[C@H]2O)[C@](C)(O)C[C@@H](C)/C(=N\OCCNCCNCc2ccccc2)[C@H](C)[C@@H](O)[C@]1(C)O [Compound 5, Erythromycin A (E)-9-[0-[2-[2-(phenylmethylamino)ethylamino]ethyl]oxime]]	0.0156	0.0312	1 (≈ 1.08 µM)	0.0156	4 (≈ 4.32 µM)	32 (≈ 34.6 µM)	0.0312	8 (≈ 8.65 µM)	–	–	–	–	–	–	–	–
CC[C@H]1OC(=O)[C@H](C)[C@@H](O[C@H]2C[C@@](C)(OC)[C@@H](O)[C@H](C)O2)[C@H](C)[C@@H](O[C@@H]2O[C@H](C)C[C@H](N(C)C)[C@H]2O)[C@](C)(O)C[C@@H](C)/C(=N\OCCNCCCCCCNCc2ccc([N+](=O)[O-])c(O)c2)[C@H](C)[C@@H](O)[C@]1(C)O [Compound 37, Erythromycin A (E)-9-[0-[2-[6-[(3-hydroxy-4-nitrophenyl)methylamino]hexylamino]ethyl]oxime]]	0.0039	0.0312	0.5 (≈ 0.48 µM)	0.0312	8 (≈ 7.68 µM)	16 (≈ 15.4 µM)	0.0312	4 (≈ 3.84 µM)	–	–	–	–	–	–	–	–
CC[C@H]1OC(=O)[C@H](C)[C@@H](O[C@H]2C[C@@](C)(OC)[C@@H](O)[C@H](C)O2)[C@H](C)[C@@H](O[C@@H]2O[C@H](C)C[C@H](N(C)C)[C@H]2O)[C@](C)(O)C[C@@H](C)/C(=N\OCCCNCCCCCCNCc2ccccc2)[C@H](C)[C@@H](O)[C@]1(C)O [Compound 12, Erythromycin A (E)-9-[0-[3-[6-(phenylmethylamino)hexylamino]propyl]oxime]]	0.0312	0.5	0.25 (≈ 0.251 µM)	0.25	16 (≈ 16.1 µM)	32 (≈ 32.1 µM)	0.0625	8 (≈ 8.04 µM)	–	–	–	–	–	–	–	–
CC[C@H]1OC(=O)[C@H](C)[C@@H](O[C@H]2C[C@@](C)(OC)[C@@H](O)[C@H](C)O2)[C@H](C)[C@@H](O[C@@H]2O[C@H](C)C[C@H](N(C)C)[C@H]2O)[C@](C)(O)C[C@@H](C)/C(=N\OCCNCCCCCCNCc2cccc(O)c2)[C@H](C)[C@@H](O)[C@]1(C)O [Compound 25, Erythromycin A (E)-9-[0-[2-[6-[(3-hydroxyphenyl)methylamino]hexylamino]ethyl]oxime]]	0.0312	0.25	0.125 (≈ 0.125 µM)	0.25	8 (≈ 8.02 µM)	16 (≈ 16 µM)	0.125	8 (≈ 8.02 µM)	–	–	–	–	–	–	–	–
